# Experimental data taken from patent US8507677B2, “Fluorescent probe” (The University of Tokyo, priority 2007, dated 2013).
# Assay: pKa values of pH probes (control of pKa by changing structure)
# Type: physicochemical
# Details: pH probe
# Excerpt: By using the pH probe described in the present invention, change of pH can be detected in a range including pKa of the compound according to the fluorescence ratio method or the absorbance ratio method. Compounds 1 to 5 have different pKa values, and accordingly, pH ranges suitable for the detection are different among them. Therefore, a pH probe suitable for a pH range desired to be detected can be chosen and used by utilizing the difference. Similarly, by suitably choosing R^3, R^4 and/or R^5 in the general formula (I), or R^13, R^14 and/or R^15 in the general formula (IA), a pH probe having a desired pKa and thus suitable for measurement of a desired pH range can be designed and provided.
row,Structure (SMILES),pKa
1,CN1/C(=C/C=C2\CCCC(/C=C/C3=[N+](C)c4ccccc4C3(C)C)=C2N2CCN(Cc3ccccc3)CC2)C(C)(C)c2ccccc21 [Compound 1],5.5
2,CCN(CC)CCN(C)C1=C(/C=C/C2=[N+](C)c3ccccc3C2(C)C)CCC/C1=C\C=C1\N(C)c2ccccc2C1(C)C [Compound 3],8.7
3,CN1CCN(C2=C(/C=C/C3=[N+](C)c4ccccc4C3(C)C)CCC/C2=C\C=C2\N(C)c3ccccc3C2(C)C)CC1 [Compound 4],6.8
4,CN(C)CCN(C)C1=C(/C=C/C2=[N+](C)c3ccccc3C2(C)C)CCC/C1=C\C=C1\N(C)c2ccccc2C1(C)C [Compound 2],8.1
5,CN1/C(=C/C=C2\CCCC(/C=C/C3=[N+](C)c4ccccc4C3(C)C)=C2N2CCN(c3ccccc3)CC2)C(C)(C)c2ccccc21 [Compound 5],2.1
